Source: ChEMBL document CHEMBL4507319 (2021)

Legend:
[1] = molecular target: Cyclin-dependent kinase 17 (Homo sapiens) (UniProt Q00537); details: Compound concentration 1000.0 nM
[2] = molecular target: Myosin light chain kinase family member 4 (Homo sapiens) (UniProt Q86YV6); details: Compound concentration 1000.0 nM
[3] = molecular target: Macrophage colony-stimulating factor 1 receptor (Homo sapiens) (UniProt P07333); details: Compound concentration 1000.0 nM
[4] = molecular target: Serine/threonine-protein kinase 33 (Homo sapiens) (UniProt Q9BYT3); details: Compound concentration 1000.0 nM
Rattus norvegicus = species: Rattus norvegicus; details: Compound concentration 10.0 uM
[5] = molecular target: Dual specificity mitogen-activated protein kinase kinase 4 (Homo sapiens) (UniProt P45985); details: Compound concentration 1000.0 nM
[6] = molecular target: Sigma intracellular receptor 2 (Homo sapiens, UniProt Q5BJF2); details: Compound concentration 10.0 uM
[7] = molecular target: T1, Tyrosine-protein kinase Mer (Homo sapiens) (UniProt Q12866); details: Compound concentration 1000.0 nM
T1 sequence (whole entry): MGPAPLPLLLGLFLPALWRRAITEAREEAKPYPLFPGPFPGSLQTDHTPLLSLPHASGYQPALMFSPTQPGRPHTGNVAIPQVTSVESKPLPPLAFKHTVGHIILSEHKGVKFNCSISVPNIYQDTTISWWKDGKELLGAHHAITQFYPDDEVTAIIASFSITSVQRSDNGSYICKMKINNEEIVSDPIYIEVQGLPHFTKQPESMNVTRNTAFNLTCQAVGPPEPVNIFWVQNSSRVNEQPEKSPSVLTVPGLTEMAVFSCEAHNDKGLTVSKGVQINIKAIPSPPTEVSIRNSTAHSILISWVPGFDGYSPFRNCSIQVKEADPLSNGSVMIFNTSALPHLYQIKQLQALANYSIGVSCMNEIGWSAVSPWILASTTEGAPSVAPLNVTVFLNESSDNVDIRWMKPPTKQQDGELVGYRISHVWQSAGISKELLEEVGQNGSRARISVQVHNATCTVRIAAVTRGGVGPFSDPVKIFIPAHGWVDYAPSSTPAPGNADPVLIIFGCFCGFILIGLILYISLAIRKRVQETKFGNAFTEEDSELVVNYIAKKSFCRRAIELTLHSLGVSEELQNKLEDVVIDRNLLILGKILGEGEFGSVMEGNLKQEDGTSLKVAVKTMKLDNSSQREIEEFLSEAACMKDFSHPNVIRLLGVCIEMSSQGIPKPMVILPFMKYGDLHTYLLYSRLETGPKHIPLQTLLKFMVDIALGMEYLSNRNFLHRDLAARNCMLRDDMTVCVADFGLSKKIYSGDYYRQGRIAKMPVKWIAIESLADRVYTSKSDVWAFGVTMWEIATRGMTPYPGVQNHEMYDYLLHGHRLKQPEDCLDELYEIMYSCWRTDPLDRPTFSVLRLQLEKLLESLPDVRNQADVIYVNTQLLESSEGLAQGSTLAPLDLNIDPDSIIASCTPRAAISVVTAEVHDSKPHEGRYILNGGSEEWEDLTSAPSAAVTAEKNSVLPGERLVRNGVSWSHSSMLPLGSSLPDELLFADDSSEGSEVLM

[8] = molecular target: T2, Bone morphogenetic protein receptor type-2 (Homo sapiens) (UniProt Q13873); details: Compound concentration 1000.0 nM
T2 sequence (whole entry): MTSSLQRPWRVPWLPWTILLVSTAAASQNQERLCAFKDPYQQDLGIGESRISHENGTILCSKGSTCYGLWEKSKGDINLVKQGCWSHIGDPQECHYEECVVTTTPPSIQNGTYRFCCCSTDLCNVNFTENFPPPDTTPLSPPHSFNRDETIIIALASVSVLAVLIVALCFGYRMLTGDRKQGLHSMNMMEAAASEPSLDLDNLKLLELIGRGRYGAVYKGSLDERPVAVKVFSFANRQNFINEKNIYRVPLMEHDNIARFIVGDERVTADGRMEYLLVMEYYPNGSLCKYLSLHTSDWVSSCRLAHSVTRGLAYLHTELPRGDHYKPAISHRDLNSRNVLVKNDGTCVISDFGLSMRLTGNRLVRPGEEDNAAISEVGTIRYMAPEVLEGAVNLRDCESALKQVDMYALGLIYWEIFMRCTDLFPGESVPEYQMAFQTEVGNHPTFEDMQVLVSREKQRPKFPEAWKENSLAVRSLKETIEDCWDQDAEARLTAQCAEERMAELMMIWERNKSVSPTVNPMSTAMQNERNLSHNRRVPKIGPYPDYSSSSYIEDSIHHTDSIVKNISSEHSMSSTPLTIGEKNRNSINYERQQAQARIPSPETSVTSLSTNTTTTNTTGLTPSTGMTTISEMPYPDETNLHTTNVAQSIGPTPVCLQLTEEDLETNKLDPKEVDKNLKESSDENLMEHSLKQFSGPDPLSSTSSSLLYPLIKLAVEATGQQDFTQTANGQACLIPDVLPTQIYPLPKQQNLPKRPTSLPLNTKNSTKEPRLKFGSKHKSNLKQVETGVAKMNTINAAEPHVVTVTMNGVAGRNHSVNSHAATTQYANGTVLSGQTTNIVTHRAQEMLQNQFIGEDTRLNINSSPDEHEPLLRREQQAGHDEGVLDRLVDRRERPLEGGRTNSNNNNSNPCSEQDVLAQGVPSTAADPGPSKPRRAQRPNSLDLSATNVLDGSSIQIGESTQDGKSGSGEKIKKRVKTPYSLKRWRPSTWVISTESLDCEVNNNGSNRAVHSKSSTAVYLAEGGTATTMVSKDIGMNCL

[9] = molecular target: Epithelial discoidin domain-containing receptor 1 (Homo sapiens) (UniProt Q08345); details: Compound concentration 1000.0 nM
[10] = tested on: Tyrosine-protein kinase ABL1 (Homo sapiens), P00519 [T315I]; details: Compound concentration 1000.0 nM
[11] = molecular target: Calcium/calmodulin-dependent protein kinase type 1 (Homo sapiens) (UniProt Q14012); details: Compound concentration 1000.0 nM
[12] = molecular target: Mitotic checkpoint serine/threonine-protein kinase BUB1 (Homo sapiens) (UniProt O43683); details: Compound concentration 1000.0 nM
[13] = molecular target: 5'-AMP-activated protein kinase catalytic subunit alpha-2 (Homo sapiens, UniProt P54646); details: Compound concentration 1000.0 nM
[14] = molecular target: Alpha-2C adrenergic receptor (Homo sapiens) (UniProt P18825); details: Compound concentration 10.0 uM
[15] = molecular target: Megakaryocyte-associated tyrosine-protein kinase (Homo sapiens) (UniProt P42679); details: Compound concentration 1000.0 nM
[16] = molecular target: Serine/threonine-protein kinase OSR1 (Homo sapiens) (UniProt O95747); details: Compound concentration 1000.0 nM
[17] = molecular target: Cyclin-dependent kinase 13 (Homo sapiens) (UniProt Q14004); details: Compound concentration 1000.0 nM

Sequence of Myosin light chain kinase family member 4 (Homo sapiens) (Q86YV6 whole entry): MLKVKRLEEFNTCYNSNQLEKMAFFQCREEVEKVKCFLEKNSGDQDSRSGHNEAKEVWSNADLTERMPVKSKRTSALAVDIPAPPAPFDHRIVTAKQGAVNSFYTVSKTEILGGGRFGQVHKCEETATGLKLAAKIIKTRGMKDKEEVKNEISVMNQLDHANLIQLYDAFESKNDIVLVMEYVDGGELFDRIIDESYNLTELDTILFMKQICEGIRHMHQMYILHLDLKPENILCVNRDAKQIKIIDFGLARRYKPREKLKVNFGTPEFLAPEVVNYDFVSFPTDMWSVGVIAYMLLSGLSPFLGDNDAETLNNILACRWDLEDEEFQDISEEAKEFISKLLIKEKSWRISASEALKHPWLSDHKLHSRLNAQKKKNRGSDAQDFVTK
Sequence of Cyclin-dependent kinase 17 (Homo sapiens) (Q00537 whole entry, looked up): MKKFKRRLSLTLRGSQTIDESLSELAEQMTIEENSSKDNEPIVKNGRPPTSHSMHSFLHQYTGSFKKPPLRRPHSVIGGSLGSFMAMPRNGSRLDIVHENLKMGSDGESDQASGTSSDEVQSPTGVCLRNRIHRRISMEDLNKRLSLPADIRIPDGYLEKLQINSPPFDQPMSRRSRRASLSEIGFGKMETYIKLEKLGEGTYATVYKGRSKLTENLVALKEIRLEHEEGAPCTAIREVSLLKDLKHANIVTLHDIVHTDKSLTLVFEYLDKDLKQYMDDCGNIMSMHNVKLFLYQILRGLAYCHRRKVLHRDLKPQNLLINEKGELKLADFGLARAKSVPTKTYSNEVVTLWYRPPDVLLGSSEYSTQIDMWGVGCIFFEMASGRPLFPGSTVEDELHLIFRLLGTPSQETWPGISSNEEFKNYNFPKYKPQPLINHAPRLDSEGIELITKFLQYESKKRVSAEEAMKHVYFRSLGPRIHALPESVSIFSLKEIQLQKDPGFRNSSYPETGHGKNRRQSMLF
Sequence of Alpha-2C adrenergic receptor (Homo sapiens) (P18825 whole entry): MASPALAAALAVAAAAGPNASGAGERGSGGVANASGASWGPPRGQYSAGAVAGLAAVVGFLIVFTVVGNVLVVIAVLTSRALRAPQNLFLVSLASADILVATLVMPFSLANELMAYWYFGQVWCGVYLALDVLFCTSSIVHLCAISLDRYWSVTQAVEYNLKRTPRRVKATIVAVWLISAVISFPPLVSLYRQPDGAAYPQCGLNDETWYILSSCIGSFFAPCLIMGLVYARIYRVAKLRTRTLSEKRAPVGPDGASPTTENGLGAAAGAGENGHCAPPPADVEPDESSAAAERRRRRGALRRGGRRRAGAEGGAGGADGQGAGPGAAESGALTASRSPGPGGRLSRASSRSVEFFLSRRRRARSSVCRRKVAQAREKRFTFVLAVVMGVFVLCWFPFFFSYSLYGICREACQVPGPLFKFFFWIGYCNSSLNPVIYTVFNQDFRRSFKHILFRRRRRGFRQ
Sequence of Macrophage colony-stimulating factor 1 receptor (Homo sapiens) (P07333 whole entry): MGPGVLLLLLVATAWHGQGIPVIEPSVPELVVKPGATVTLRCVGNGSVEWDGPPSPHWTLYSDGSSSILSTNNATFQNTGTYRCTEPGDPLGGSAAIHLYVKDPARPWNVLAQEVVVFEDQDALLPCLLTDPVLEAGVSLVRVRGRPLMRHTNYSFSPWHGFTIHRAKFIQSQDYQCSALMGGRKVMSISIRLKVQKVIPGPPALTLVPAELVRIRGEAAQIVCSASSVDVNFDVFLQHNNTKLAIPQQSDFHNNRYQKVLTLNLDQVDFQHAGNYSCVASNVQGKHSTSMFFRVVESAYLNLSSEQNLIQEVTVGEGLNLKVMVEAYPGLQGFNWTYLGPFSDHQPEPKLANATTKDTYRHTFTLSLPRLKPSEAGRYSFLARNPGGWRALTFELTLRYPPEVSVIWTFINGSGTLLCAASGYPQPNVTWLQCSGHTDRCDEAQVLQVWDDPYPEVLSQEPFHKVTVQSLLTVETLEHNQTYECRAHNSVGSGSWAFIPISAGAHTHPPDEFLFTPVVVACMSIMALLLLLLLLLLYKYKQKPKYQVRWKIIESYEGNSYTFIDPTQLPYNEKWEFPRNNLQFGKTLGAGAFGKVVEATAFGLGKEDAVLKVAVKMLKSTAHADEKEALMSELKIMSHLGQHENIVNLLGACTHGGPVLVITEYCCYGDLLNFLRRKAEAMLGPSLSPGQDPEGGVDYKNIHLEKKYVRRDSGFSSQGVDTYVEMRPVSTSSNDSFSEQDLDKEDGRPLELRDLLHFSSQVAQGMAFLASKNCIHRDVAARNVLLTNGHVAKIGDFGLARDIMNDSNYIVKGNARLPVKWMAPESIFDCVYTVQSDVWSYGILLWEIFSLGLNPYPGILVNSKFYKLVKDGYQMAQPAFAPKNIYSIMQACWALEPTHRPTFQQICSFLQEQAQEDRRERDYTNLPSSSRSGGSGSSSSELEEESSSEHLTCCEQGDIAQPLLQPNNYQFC
Sequence of Calcium/calmodulin-dependent protein kinase type 1 (Homo sapiens) (Q14012 whole entry, looked up): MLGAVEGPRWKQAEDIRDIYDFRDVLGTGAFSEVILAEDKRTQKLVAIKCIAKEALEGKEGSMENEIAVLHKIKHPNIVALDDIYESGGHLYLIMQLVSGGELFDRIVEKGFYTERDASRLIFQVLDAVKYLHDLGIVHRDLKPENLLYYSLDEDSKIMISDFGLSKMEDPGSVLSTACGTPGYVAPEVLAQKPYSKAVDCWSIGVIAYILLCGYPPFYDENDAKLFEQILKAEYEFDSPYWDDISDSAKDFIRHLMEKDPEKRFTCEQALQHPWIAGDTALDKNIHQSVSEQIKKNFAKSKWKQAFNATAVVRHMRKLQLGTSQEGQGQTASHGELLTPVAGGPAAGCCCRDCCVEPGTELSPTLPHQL
Sequence of Dual specificity mitogen-activated protein kinase kinase 4 (Homo sapiens) (P45985 whole entry): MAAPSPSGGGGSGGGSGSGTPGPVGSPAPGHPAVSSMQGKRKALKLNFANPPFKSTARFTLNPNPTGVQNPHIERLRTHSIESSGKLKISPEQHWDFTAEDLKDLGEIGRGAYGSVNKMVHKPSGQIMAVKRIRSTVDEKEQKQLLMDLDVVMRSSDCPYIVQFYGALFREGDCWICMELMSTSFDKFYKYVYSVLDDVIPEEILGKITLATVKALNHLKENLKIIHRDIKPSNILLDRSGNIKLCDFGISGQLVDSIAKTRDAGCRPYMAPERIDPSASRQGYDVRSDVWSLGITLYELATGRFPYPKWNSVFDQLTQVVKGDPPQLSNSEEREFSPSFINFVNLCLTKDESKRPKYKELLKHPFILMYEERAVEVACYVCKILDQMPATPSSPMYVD
Sequence of 5'-AMP-activated protein kinase catalytic subunit alpha-2 (P54646 whole entry, looked up): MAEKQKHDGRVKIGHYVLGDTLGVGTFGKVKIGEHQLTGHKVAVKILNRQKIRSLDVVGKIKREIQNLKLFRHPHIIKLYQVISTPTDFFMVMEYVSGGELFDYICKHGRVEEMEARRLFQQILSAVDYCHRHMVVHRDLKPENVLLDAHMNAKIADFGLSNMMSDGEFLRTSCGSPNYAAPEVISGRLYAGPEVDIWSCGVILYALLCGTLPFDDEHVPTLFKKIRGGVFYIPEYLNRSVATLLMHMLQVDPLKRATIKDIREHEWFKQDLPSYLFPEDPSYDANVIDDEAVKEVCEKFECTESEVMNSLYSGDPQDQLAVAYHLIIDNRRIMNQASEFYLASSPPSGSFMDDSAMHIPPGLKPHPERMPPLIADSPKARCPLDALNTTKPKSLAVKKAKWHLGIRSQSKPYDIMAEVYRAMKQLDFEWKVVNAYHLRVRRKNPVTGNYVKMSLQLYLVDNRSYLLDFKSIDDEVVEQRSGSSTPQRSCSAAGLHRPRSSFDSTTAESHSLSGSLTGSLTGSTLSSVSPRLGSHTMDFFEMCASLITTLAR
Sequence of Sigma intracellular receptor 2 (Q5BJF2 whole entry): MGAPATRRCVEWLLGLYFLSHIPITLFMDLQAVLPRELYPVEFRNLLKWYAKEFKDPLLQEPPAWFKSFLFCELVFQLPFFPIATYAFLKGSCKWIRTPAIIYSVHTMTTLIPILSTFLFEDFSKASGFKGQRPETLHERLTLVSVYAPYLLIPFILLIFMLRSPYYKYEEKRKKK
Sequence of Megakaryocyte-associated tyrosine-protein kinase (Homo sapiens) (P42679 whole entry): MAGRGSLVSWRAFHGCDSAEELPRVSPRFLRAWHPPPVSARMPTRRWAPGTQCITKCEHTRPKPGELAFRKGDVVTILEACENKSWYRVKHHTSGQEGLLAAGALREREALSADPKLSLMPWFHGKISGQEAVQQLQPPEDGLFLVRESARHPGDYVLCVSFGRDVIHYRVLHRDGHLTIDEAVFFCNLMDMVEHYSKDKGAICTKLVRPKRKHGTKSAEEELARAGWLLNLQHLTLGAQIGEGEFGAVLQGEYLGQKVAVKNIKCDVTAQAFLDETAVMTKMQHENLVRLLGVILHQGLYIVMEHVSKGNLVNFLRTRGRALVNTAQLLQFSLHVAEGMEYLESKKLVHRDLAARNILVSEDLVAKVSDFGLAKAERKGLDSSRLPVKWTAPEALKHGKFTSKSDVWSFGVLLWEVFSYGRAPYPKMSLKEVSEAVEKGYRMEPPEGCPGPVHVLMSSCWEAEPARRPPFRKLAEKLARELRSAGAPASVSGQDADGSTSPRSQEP
Sequence of Serine/threonine-protein kinase OSR1 (Homo sapiens) (O95747 2-527 limits assumed): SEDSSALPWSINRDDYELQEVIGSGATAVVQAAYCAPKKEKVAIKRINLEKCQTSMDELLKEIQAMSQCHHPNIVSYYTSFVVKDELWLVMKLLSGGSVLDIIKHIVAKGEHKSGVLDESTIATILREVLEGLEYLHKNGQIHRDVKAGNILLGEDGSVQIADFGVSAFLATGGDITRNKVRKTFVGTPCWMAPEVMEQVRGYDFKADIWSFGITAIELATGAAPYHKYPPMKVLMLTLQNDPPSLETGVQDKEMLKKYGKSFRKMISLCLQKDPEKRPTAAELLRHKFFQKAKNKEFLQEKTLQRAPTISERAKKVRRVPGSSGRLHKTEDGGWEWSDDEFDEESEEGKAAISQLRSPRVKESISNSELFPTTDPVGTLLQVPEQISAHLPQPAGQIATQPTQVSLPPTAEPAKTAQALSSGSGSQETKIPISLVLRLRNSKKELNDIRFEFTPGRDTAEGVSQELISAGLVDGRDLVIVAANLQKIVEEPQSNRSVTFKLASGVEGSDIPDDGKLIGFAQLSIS

Row | Structure (SMILES) | residual activity [1] | residual activity [2] | residual activity [3] | residual activity [4] | inhibition (Rattus norvegicus) | residual activity [5] | inhibition [6] | residual activity [7] | residual activity [8] | residual activity [9] | residual activity [10] | residual activity [11] | residual activity [12] | residual activity [13] | inhibition [14] | residual activity [15] | residual activity [16] | residual activity [17]
1 | CCc1ccccc1C(=O)Nc1n[nH]c2c(C)c(F)c(C3C(C#N)=C(C)N(C)C(C)=C3C#N)cc12 [BAY-3827] | 93% | 100% | 100% | 100% | 85.6% | 100% | 78.3% | 80% | 100% | 48% | 100% | 76% | 100% | 0% | 10% | 100% | 100% | 100%
2 | CC1=C(C#N)C(c2ccc3c(c2)c(NC(=O)c2ccccc2C)nn3C)C(C#N)=C(C)N1 [BAY-974] | 100% | 100% | 99% | 100% | 96.3% | 79% | 51.2% | 100% | 79% | 74% | 88% | 98% | 74% | 99% | 10.2% | 79% | 83% | 87%
